Measured values reported in patent US20260256792A1, “TREATMENT OF CHRONIC SPONTANEOUS URTICARIA BY ADMINISTERING (R)-2-[3-[4-AMINO-3-(2-FLUORO-4-PHENOXY-PHENYL)PYRAZOLO[3,4-D]PYRIMIDIN-1-YL]PIPERIDINE-1-CARBONYL]-4-METHYL-4-[4-(OXETAN-3-YL)PIPERAZIN-1-YL]PENT-2-ENENITRILE” (priority 2023, published 2026).

Test system: moderate-to-severe chronic spontaneous urticaria (CSU)
Experiment: Phase 2 CSU study: urticaria activity score over 7 days (UAS7)
Format: in vivo, human
Design: key to UAS7 Median / UAS7 Change from baseline Median / UAS7 change from baseline, Q1 / UAS7 change from baseline, Q3 / UAS7 change from baseline, Max / UAS7 Change from baseline LS Mean (SE): UAS7 points; daily UAS score ranges 0–6 points/day, over 7 days
Details: for UAS7 change from baseline at Week 12, LS Mean (SE): ANCOVA; for UAS7 Change from baseline Mean (SD) / UAS7 Change from baseline Median / UAS7 Percent change from baseline Mean (SD) / UAS7 Percent change from baseline Median / UAS7 change from baseline, Max / UAS7 change from baseline, Min / UAS7 change from baseline, Q1 / UAS7 change from baseline, Q3 / UAS7 percent change from baseline, Max / UAS7 percent change from baseline, Min / UAS7 percent change from baseline, Q1 / UAS7 percent change from baseline, Q3: double-blind period, last week block of Table 17 (week heading not shown)
Excerpt: The study comprises a 12 week, randomized, double-blind, placebo-controlled, multi-center, dose-ranging efficacy and safety phase, followed by a 40 week open label extension (OLE) phase (see FIG. 1). The study consists of three phases and an optional OLE phase. […] Clinically, CSU is characterized by the spontaneous and recurrent appearance of pruritic hives. The proposed primary endpoints were the UAS7 at Week 12 in EU and EU reference countries and the ISS7 in the US. Regardless of where a participant was from, all assessments were the same. The UAS7 score is a composite score containing both the HSS7 and the ISS7. This allowed a global assessment of the two key components of urticaria: hives and itch. […] The UAS is a validated PRO measure. […] The daily UAS scores range from 0 to 6 point/day. […] Patients were to complete the UAS using the e-diary. […] The following secondary endpoints were to be analyzed using the same approach as for the primary endpoint: • Change from baseline in UAS7 at Week 4 • Change from baseline in UAS7 at Week 12 (for US and US reference countries) • Change from baseline in ISS7 at Week 12 (except US and US reference countries) • Change from baseline in HSS7 at Week 12 The following responder secondary endpoints were to be analyzed using the Cochran-Mantel-Haenszel test adjusted by region: • Proportion of participants with UAS7<6 at Week 12 • Proportion of participants with UAS7=0 at Week 12 Participants who received selected prohibited medications and/or rescue medications were to be considered as non-responders for time points after the medication usage. For other participants, all available data including those collected during the off-treatment period were to be used to determine the responder/non-responder status. Missing data were to be considered as non-responders.

[1] = 400 mg BID, Omalizumab-Naïve Population (N = 35), n observed/imputed 5 (3/2)
[2] = 400 mg BID, Week 12, omalizumab-naïve
[3] = 400 mg BID, omalizumab-naïve population
[4] = 400 mg BID, omalizumab-naïve population with outlier removed
[5] = 400 mg QPM, Omalizumab-Naïve Population (N = 37), n observed/imputed 7 (3/4)
[6] = 400 mg QPM, omalizumab-naïve population
[7] = 400 mg QPM, omalizumab-naïve population with outlier removed

## CC(C)(C=C(C#N)C(=O)N1CCC[C@@H](n2nc(-c3ccc(Oc4ccccc4)cc3F)c3c(N)ncnc32)C1)N1CCN(C2COC2)CC1 [rilzabrutinib, (R)-2-[3-[4-amino-3-(2-fluoro-4-phenoxy-phenyl)pyrazolo[3,4-d]pyrimidin-1-yl]piperidine-1-carbonyl]-4-methyl-4-[4-(oxetan-3-yl)piperazin-1-yl]pent-2-enenitrile]
400 mg BID
  improvement compared to placebo across all endpoints: positive improvements across all endpoints
400 mg BID, ITT population
  UAS7 at Week 12, Mean (SD): 14.70 (14.29)
  UAS7 at Week 12, Median: 12.00
  UAS7 change from baseline at Week 12, LS Mean Diff vs. placebo (95% CI): −3.62 (−8.87, 1.63)
  UAS7 change from baseline at Week 12, Mean (SD): −16.02 (13.29) ^
  UAS7 change from baseline at Week 12, Median: −13.50
  UAS7 change from baseline at Week 12, LS Mean (SE): −14.82 (1.98)
400 mg BID, ITT population, sentence on reductions following one week of treatment
  LS mean change in UAS7 from baseline to Week 12 (see Table 18): −10.01
[1]
  UAS7 Change from baseline Mean (SD): −14.40 (13.79)
  UAS7 Change from baseline Median: −13.00
  UAS7 Percent change from baseline Mean (SD): −51.30 (48.04) %
  UAS7 Percent change from baseline Median: −48.15%
  UAS7 change from baseline, Max: 0.0
  UAS7 change from baseline, Min: −29.0
  UAS7 change from baseline, Q1: −28.00
  UAS7 change from baseline, Q3: −2.00
  UAS7 percent change from baseline, Max: 0.0%
  UAS7 percent change from baseline, Min: −100.0%
  UAS7 percent change from baseline, Q1: −100.00%
  UAS7 percent change from baseline, Q3: −8.33%
[2]
  participants with UAS7 of 0: 14.3%
  participants with UAS7 of ≤6: 20.0%
[3]
  LS mean reduction in UAS7 from baseline to Week 12 (see Table 19): −9.79
  UAS7 at Week 12, Mean (SD): 15.61 (13.91)
  UAS7 at Week 12, Median: 14.00
  UAS7 change from baseline at Week 12, LS Mean Diff vs. placebo (95% CI): −4.09 (−9.59, 1.40)
  UAS7 change from baseline at Week 12, Mean (SD): −14.49 (12.08) ^
  UAS7 change from baseline at Week 12, Median: −12.80
  UAS7 change from baseline at Week 12, LS Mean (SE): −14.24 (2.06)
[4]
  UAS7 at Week 12, Mean (SD): 15.61 (13.91)
  UAS7 at Week 12, Median: 14.00
  UAS7 change from baseline at Week 12, LS Mean Diff vs. placebo (95% CI): −4.29 (−9.74, 1.16)
  UAS7 change from baseline at Week 12, Mean (SD): −14.49 (12.08) ^
  UAS7 change from baseline at Week 12, Median: −12.80
  UAS7 change from baseline at Week 12, LS Mean (SE): −14.30 (2.06)
400 mg QPM
  difference to placebo across endpoints: no difference
400 mg QPM, ITT population
  UAS7 at Week 12, Mean (SD): 21.80 (10.94)
  UAS7 at Week 12, Median: 22.40
  UAS7 change from baseline at Week 12, LS Mean Diff vs. placebo (95% CI): 0.97 (−4.40, 6.34)
  UAS7 change from baseline at Week 12, Mean (SD): −11.04 (9.56)
  UAS7 change from baseline at Week 12, Median: −9.40
  UAS7 change from baseline at Week 12, LS Mean (SE): −10.22 (2.01)
[5]
  UAS7 Change from baseline Mean (SD): −21.44 (16.26)
  UAS7 Change from baseline Median: −28.00
  UAS7 Percent change from baseline Mean (SD): −66.12 (46.34) %
  UAS7 Percent change from baseline Median: −86.67%
  UAS7 change from baseline, Max: 0.3
  UAS7 change from baseline, Min: −38.0
  UAS7 change from baseline, Q1: −36.40
  UAS7 change from baseline, Q3: 0.00
  UAS7 percent change from baseline, Max: 1.1%
  UAS7 percent change from baseline, Min: −100.0%
  UAS7 percent change from baseline, Q1: −100.00%
  UAS7 percent change from baseline, Q3: 0.00%
[6]
  UAS7 at Week 12, Median: 22.87
  UAS7 change from baseline at Week 12, LS Mean Diff vs. placebo (95% CI): 0.40 (−5.08, 5.89)
  UAS7 change from baseline at Week 12, Mean (SD): −10.57 (9.36)
  UAS7 change from baseline at Week 12, Median: −8.70
  UAS7 change from baseline at Week 12, LS Mean (SE): −9.74 (2.00) ^
[7]
  UAS7 at Week 12, Median: 22.87
  UAS7 change from baseline at Week 12, LS Mean Diff vs. placebo (95% CI): 0.08 (−5.29, 5.46)
  UAS7 change from baseline at Week 12, Mean (SD): −10.57 (9.36)
  UAS7 change from baseline at Week 12, Median: −8.70
  UAS7 change from baseline at Week 12, LS Mean (SE): −9.93 (1.96) ^
400 mg TID arm
  patients with improvement in the weekly UAS7: all patients except for one showed improvement
400 mg TID, ITT population
  UAS7 at Week 12, Median: 9.00
